# Results taken from patent US20260217701A1, “SELECTIVE BET INHIBITORS AND USES THEREOF” (Tay Therapeutics Limited, priority 2022, published 2026).
# Where “and” joins values, the source holds several entries; their conditions need not be identical. Identical values can stand only once.
# Test system: imiquimod-induced psoriasis
# Assay: Imiquimod-induced psoriasis model
# Type: in vivo, mice
# Parameters: Spleen Weight / Spleen Weight Ratio: unit not given here
# Conditions: for PASI Scores / Number Licking / Number Licking + Scratching / Number Scratching / Distance Traveled / Number Rearings / Spleen Weight / Spleen Weight Ratio: individual animals; for Distance Traveled / Number Rearings: behavioral evaluation; for Spleen Weight / Spleen Weight Ratio: mice
# How it was run: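 Psoriasis-like dermatitis induced in mice by daily dorsal imiquimod cream (Days 1–14); dosing with Compound A (5% DMSO/40% PEG-400/55% saline vehicle) began Day 8. Read-outs: summed 0–4 scores for erythema, induration and peeling daily to Day 15, plus terminal spleen ratio, behaviour and serum cytokines.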
# [1] = IMI-psoriasis model, behavioral evaluation D15, 1 mg/kg
# [2] = IMI-psoriasis model, behavioral evaluation D15, 3 mg/kg
# [3] = IMI-psoriasis model, behavioral evaluation D15, 10 mg/kg
structure (smiles),measurement,setting,value
"COCCn1cc(-c2ccccc2)c(-c2cn(C)c(=O)c3[nH]c(-c4cnn(C(F)(F)F)c4)cc23)cc1=O [Compound B, 4-(1-(2-methoxyethyl)-2-oxo-5-phenyl-1,2-dihydropyridin-4-yl)-6-methyl-2-(1-(trifluoromethyl)-1H-pyrazol-4-yl)-1,6-dihydro-7H-pyrrolo[2,3-c]pyridin-7-one]",PASI Scores,"IMI + Compound B 1 mg/kg, D13",4 (2×) and 5 (3×) and 8 and 7 (2×)
same,PASI Scores,"IMI + Compound B 1 mg/kg, D14",4 (2×) and 7 (2×) and 6 (3×) and 5
same,PASI Scores,"IMI + Compound B 1 mg/kg, D15",5 (3×) and 7 and 4 and 6 (2×) and 3
same,PASI Scores,"IMI + Compound B 3 mg/kg, D8 (day treatment started)",8 and 7 (4×)
same,PASI Scores,"IMI + Compound B 3 mg/kg, D9",7 and 8 and 6 (3×)
same,PASI Scores,"IMI + Compound B 3 mg/kg, D10",6 (2×) and 8 and 5 and 4
same,PASI Scores,"IMI + Compound B 3 mg/kg, D11",5 (4×) and 6
same,PASI Scores,"IMI + Compound B 3 mg/kg, D12",4 and 6 (3×)
same,PASI Scores,"IMI + Compound B 3 mg/kg, D13",6 and 4 (3×)
same,PASI Scores,"IMI + Compound B 3 mg/kg, D14",6 and 4 and 5 and 3
same,PASI Scores,"IMI + Compound B 3 mg/kg, D15",4 and 5 and 3 and 1
same,Use Enrichment D1,"IMI-psoriasis model, D1, 1 mg/kg, per cage (two animals)",4.0
same,Use Enrichment D1,"IMI-psoriasis model, D1, 3 mg/kg, per cage (two animals)",4.0
same,Use Enrichment D1,"IMI-psoriasis model, D1, 10 mg/kg, per cage (two animals)",4.0
same,Use Enrichment D8,"IMI-psoriasis model, D8, 1 mg/kg, per cage (two animals)",1.0 and 1.5
same,Use Enrichment D9,"IMI-psoriasis model, D9, 1 mg/kg, per cage (two animals)",1.5 and 2.0 and 1.0
same,Use Enrichment D10,"IMI-psoriasis model, D10, 1 mg/kg, per cage (two animals)",2.5 and 1.5 and 3.0
same,Use Enrichment D11,"IMI-psoriasis model, D11, 1 mg/kg, per cage (two animals)",3.0 and 3.5 and 2.5
same,Use Enrichment D11,"IMI-psoriasis model, D11, 3 mg/kg, per cage (two animals)",2.0 and 4.0 and 2.5
same,Use Enrichment D12,"IMI-psoriasis model, D12, 1 mg/kg, per cage (two animals)",1.5 and 1.0
same,Use Enrichment D13,"IMI-psoriasis model, D13, 10 mg/kg, per cage (two animals)",4.0 and 2.5
same,Use Enrichment D14,"IMI-psoriasis model, D14, 1 mg/kg, per cage (two animals)",2.5 and 2.0 and 1.5
same,Use Enrichment D14,"IMI-psoriasis model, D14, 3 mg/kg, per cage (two animals)",3.0 and 4.0 and 3.5 and 2.5
same,Use Enrichment D14,"IMI-psoriasis model, D14, 10 mg/kg, per cage (two animals)",4.0
same,Use Enrichment D15,"IMI-psoriasis model, D15, 3 mg/kg, per cage (two animals)",3.5 and 4.0 and 3.0
same,Use Enrichment D15,"IMI-psoriasis model, D15, 10 mg/kg, per cage (two animals)",4.0
same,Number Licking,[1],3 (4×) and 2 and 7 and 4 and 5
same,Number Licking + Scratching,[1],5 (3×) and 8 and 3 and 4 and 7 and 6
same,Number Scratching,[1],2 (2×) and 5 and 0 (3×) and 1 and 3
same,Number Licking,[2],8 (2×) and 9 and 3 (4×)
same,Number Licking + Scratching,[2],8 and 11 and 4 and 3 (2×) and 5 and 13
same,Number Scratching,[2],0 (3×) and 2 (2×) and 1 and 5
same,Number Licking,[3],6 and 4 and 2 (4×) and 3
same,Number Licking + Scratching,[3],6 and 5 and 2 (2×) and 3 (3×)
same,Number Scratching,[3],0 (4×) and 1 (3×)
same,Distance Traveled,"IMI-psoriasis model, 1 mg/kg",15 m and 7 m and 11 m and 8 m and 9 m and 13 m and 14 m (2×)
same,Number Rearings,"IMI-psoriasis model, 1 mg/kg",44 and 23 and 47 and 19 and 29 and 27 and 87 and 49
same,Distance Traveled,"IMI-psoriasis model, 3 mg/kg",17 m and 9 m and 23 m and 12 m and 15 m and 11 m and 13 m
same,Number Rearings,"IMI-psoriasis model, 3 mg/kg",27 and 38 and 121 and 47 and 31 and 60 and 57
same,Distance Traveled,"IMI-psoriasis model, 10 mg/kg",15 m and 14 m and 16 m and 7 m (3×) and 6 m
same,Number Rearings,"IMI-psoriasis model, 10 mg/kg",44 (2×) and 71 and 6 and 11 and 1 and 13
same,Use Enrichment Mean D1-D8,"IMI-psoriasis model, mean D1-D8, 1 mg/kg, per cage (two animals)",2.50 and 2.75
same,Use Enrichment Mean D1-D8,"IMI-psoriasis model, mean D1-D8, 3 mg/kg, per cage (two animals)",2.50 and 2.75 and 2.25
same,Use Enrichment Mean D1-D8,"IMI-psoriasis model, mean D1-D8, 10 mg/kg, per cage (two animals)",2.50 and 2.75 and 2.00 and 3.00
same,Use Enrichment Mean D8-D15,"IMI-psoriasis model, mean D8-D15, 1 mg/kg, per cage (two animals)",2.57 and 2.07 and 2.43 and 2.14
same,Use Enrichment Mean D8-D15,"IMI-psoriasis model, mean D8-D15, 10 mg/kg, per cage (two animals)",3.50 and 2.29 and 1.93 and 3.07
same,Spleen Weight,"IMI-psoriasis model, 1 mg/kg",255.35 and 280.52 and 235.85 and 298.12 and 227.47 and 255.31 and 244.77 and 316.12
same,Spleen Weight Ratio,"IMI-psoriasis model, 1 mg/kg",1562.73 and 1912.20 and 1309.55 and 1793.74 and 1315.62 and 1552.98 and 1518.42 and 1820.97
same,Spleen Weight,"IMI-psoriasis model, 3 mg/kg",244.98 and 212.34 and 270.73 and 183.55 and 232.29 and 224.28 and 206.85 and 220.98
same,Spleen Weight Ratio,"IMI-psoriasis model, 3 mg/kg",1777.79 and 1257.94 and 1699.50 and 1016.90 and 1343.49 and 1313.11 and 1297.68 and 1278.08
same,Spleen Weight,"IMI-psoriasis model, 10 mg/kg",184.80 and 169.45 and 184.96 and 119.62 and 101.24 and 156.25 and 130.42 and 159.58
